According to patent US8163737B2 (Vertex Pharmaceuticals Incorporated, priority 2006, dated 2012):
Ends that are not written are not given here.

Assays:
facial blood flow [1] = settings: rat, trigeminal ganglion stimulation; cited from earlier work
middle meningeal artery = settings: rats, electrical stimulation of the dura mater, prior administration; cited from earlier work
facial blood flow [2] = settings: marmoset, electrical stimulation of the trigeminal ganglion; cited from earlier work
[3] = tested on: acute attacks of migraine; settings: clinical trials; cited from earlier work
[4] = target: T1, CGRP receptor (SK-N-MC membrane) (Homo sapiens, UniProt O60894+Q16602); assay: I125-CGRP binding displacement assay on purified SK-N-MC membrane
T1 construct: Purified SK-N-MC membrane was purchased from Perkin Elmer; purchased Perkin Elmer; host or cells: SK-N-MC membrane
T1 sequence (Q16602 23-461): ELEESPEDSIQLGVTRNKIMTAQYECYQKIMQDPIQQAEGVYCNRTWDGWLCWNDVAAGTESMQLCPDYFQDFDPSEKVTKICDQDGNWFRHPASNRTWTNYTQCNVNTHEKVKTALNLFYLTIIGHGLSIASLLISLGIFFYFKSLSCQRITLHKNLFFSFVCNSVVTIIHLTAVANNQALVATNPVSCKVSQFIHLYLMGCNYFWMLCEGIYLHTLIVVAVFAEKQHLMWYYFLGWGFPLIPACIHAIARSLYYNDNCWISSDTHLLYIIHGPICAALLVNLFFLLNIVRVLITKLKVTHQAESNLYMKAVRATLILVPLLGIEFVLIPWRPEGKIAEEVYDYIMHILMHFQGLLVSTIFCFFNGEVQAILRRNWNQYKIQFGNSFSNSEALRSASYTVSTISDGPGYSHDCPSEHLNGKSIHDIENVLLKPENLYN
T1 sequence (O60894 27-148): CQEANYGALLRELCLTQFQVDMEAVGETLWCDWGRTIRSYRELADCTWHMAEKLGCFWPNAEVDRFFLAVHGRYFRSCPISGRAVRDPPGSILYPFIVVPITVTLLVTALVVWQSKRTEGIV
Outline: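 Human SK-N-MC membranes incubated with compounds and I125-CGRP for 2 h at room temperature in 25 mM Tris-HCl pH 7.4, 5 mM MgCl2, 0.1% BSA, 0.05% Tween, then filtered and counted. Nonspecific binding defined with 1 uM unlabelled CGRP; percent displacement fitted to curves.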

endogenous CGRP receptor = endogenous CGRP receptor (Homo sapiens, UniProt O60894+Q16602); assay: CGRP functional antagonism using SK-N-MC-BLA (4C10), β-lactamase transcriptional reporter assay; assay type: cell-based; settings: SK-N-MC (4C10) cells, inhibition of β-lactamase expression in the presence of 200 pM CGRP
Chain of endogenous CGRP receptor (Q16602 23-461): as the sequence (Q16602 23-461) above
Chain of endogenous CGRP receptor (O60894 27-148): as the sequence (O60894 27-148) above

CGRP (8-37): a peptide CGRP antagonist (VTHRLAGLLSRSGGVVKNNFVPTNVGSKAF; ends and bridges not checked; UniProt P06881 90-119, looked up, fragment)
effect on increased facial blood flow (facial blood flow [1]): inhibited | effect on increase of middle meningeal artery diameter (middle meningeal artery): blocked

NCCCC[C@H](NC(=O)[C@@H](Cc1cc(Br)c(O)c(Br)c1)NC(=O)N1CCC(N2Cc3ccccc3NC2=O)CC1)C(=O)N1CCN(c2ccncc2)CC1 [BIBN4096BS]
effect on increase in facial blood flow (facial blood flow [2]): blocked | efficacy in acute attacks of migraine [3]: effective in treating acute attacks of migraine

CCN1CCC2(CC1)SC(CC(=O)N1CCC(N3CCc4ccccc4NC3=O)CC1)C(=O)N2CCC(C)(C)C (stereo not drawn) [Compound 288]
Ki [4]: < 1000 nM | IC50 (endogenous CGRP receptor): < 1000 nM

CC(C)CCN1C(=O)C(CC(=O)N2CCC(n3c(=O)[nH]c4ccccc43)CC2)SC1c1ccccc1-n1ccnc1 (stereo not drawn) [Compound 289]
Ki [4]: < 1000 nM | IC50 (endogenous CGRP receptor): < 1000 nM

CC(C)CCN1C(=O)C(CC(=O)N2CCC(N3CCc4ccccc4NC3=O)CC2)SC1c1ccccc1F (stereo not drawn) [Compound 149]
Ki [4]: < 1000 nM | IC50 (endogenous CGRP receptor): < 1000 nM

CC(C)(C)CCN1C(=O)[C@H](CC(=O)N2CCC(N3CCc4ccccc4NC3=O)CC2)SC1c1cccc(F)c1N1CC[C@@H](O)C1 (stereo partly drawn) [Compound 487]
Ki [4]: < 1000 nM | IC50 (endogenous CGRP receptor): < 1000 nM

CN(C)c1ccccc1C1SC(CC(=O)N2CCC(n3c(=O)[nH]c4ccccc43)CC2)C(=O)N1CCC(C)(C)C (stereo not drawn) [Compound 299]
Ki [4]: < 1000 nM | IC50 (endogenous CGRP receptor): < 1000 nM

CC(C)CCN1C(=O)C(CC(=O)N2CCC(n3c(=O)[nH]c4ccccc43)CC2)SC1c1ccccc1 (stereo not drawn) [Compound 104]
Ki [4]: > 5000 nM | IC50 (endogenous CGRP receptor): > 5000 nM

CC(C)(C)CCN1C(=O)[C@H](CC(=O)N2CCC(N3CCc4ccccc4NC3=O)CC2)SC1c1cccc(F)c1N1CCN(C2CCC2)CC1 (stereo partly drawn) [Compound 543]
Ki [4]: < 1000 nM | IC50 (endogenous CGRP receptor): < 1000 nM

CC(C)(C)CCN1C(=O)[C@H](CC(=O)N2CCC(n3c(=O)[nH]c4ncccc43)CC2)SC1c1cccc(F)c1N1CCC(F)C1 (stereo partly drawn) [Compound 480]
Ki [4]: < 1000 nM | IC50 (endogenous CGRP receptor): 1000 to 5000 nM

CC(C)(C)CCN1C(=O)[C@H](CC(=O)N2CCC(N3CCc4ccccc4NC3=O)CC2)S[C@@H]1c1ccccc1C1CCNCC1 [Compound 501, 4,5-Dihydro-3-(1-(2-((2R,5S)-3-(3,3-dimethylbutyl)-4-oxo-2-(2-(piperidin-4-yl)phenyl)thiazolidin-5-yl)acetyl)piperidin-4-yl)-1H-benzo[d][1,3]diazepin-2(3H)-one]
Ki [4]: < 1000 nM | IC50 (endogenous CGRP receptor): < 1000 nM

CC(C)CN1C(=O)[C@H](CC(=O)N2CCC(n3c(=O)[nH]c4ncccc43)CC2)S[C@@H]1c1cccc(F)c1N1CCN(C(C)(C)C)CC1 [Compound 495]
Ki [4]: < 1000 nM | IC50 (endogenous CGRP receptor): < 1000 nM

CC(C)CCN1C(=O)C(CC(=O)N2CCC(N3CCc4ccccc4NC3=O)CC2)SC1c1ccccc1N1CCOCC1 (stereo not drawn) [Compound 10]
Ki [4]: < 1000 nM | IC50 (endogenous CGRP receptor): < 1000 nM

CC(C)CCN1C(=O)C(CC(=O)N2CCC(N3Cc4ccccc4NC3=O)CC2)S(=O)(=O)C1c1ccc(F)cc1F (stereo not drawn) [Compound 203]
Ki [4]: < 1000 nM | IC50 (endogenous CGRP receptor): 1000 to 5000 nM

CC(C)(C)CCN1C(=O)[C@H](CC(=O)N2CCC(N3CCc4ccccc4NC3=O)CC2)SC1c1cccc(F)c1N1CCC(N2CCCCC2)CC1 (stereo partly drawn) [Compound 550]
Ki [4]: < 1000 nM | IC50 (endogenous CGRP receptor): < 1000 nM

COC(=O)[C@@H](CC(C)C)N1C(=O)C(CC(=O)N2CCC(N3CCc4ccccc4NC3=O)CC2)SC1c1ccccc1 (stereo partly drawn) [Compound 225]
Ki [4]: < 1000 nM | IC50 (endogenous CGRP receptor): < 1000 nM

CC(C)CN1C(=O)[C@H](CC(=O)N2CCC(N3CCc4ccccc4NC3=O)CC2)SC1c1cccc(F)c1N1CCN(C(C)(C)C)CC1 (stereo partly drawn) [Compound 494]
Ki [4]: < 1000 nM | IC50 (endogenous CGRP receptor): < 1000 nM

CN1CCN(c2cccc(F)c2C2SC(CC(=O)N3CCC(n4c(=O)[nH]c5ncccc54)CC3)C(=O)N2CCC(C)(C)C)CC1 (stereo not drawn) [Compound 350]
Ki [4]: < 1000 nM | IC50 (endogenous CGRP receptor): < 1000 nM

CC(C)(C)CCN1C(=O)[C@H](CC(=O)N2CCC(N3CCc4ccccc4NC3=O)CC2)SC1c1cccc(F)c1N1CCN(C2CCC2)CC1 (stereo partly drawn) [Compound 542]
Ki [4]: < 1000 nM | IC50 (endogenous CGRP receptor): < 1000 nM

CC(C)(C)N1CCN(c2c(F)cccc2[C@@H]2S[C@@H](CC(=O)N3CCC(N4CCc5ccccc5NC4=O)CC3)C(=O)N2CCc2ccccc2)CC1 [Compound 508]
Ki [4]: < 1000 nM | IC50 (endogenous CGRP receptor): < 1000 nM

CC(C)(C)CCN1C(=O)[C@H](CC(=O)N2CCC(n3c(=O)[nH]c4ncccc43)CC2)S[C@H]1c1cccc(F)c1N1CCC(N)C1 (stereo partly drawn) [Compound 470]
Ki [4]: < 1000 nM | IC50 (endogenous CGRP receptor): < 1000 nM

O=C(CC1SC(c2ccccc2)N(CC2CCCO2)C1=O)N1CCC(N2Cc3ccccc3NC2=O)CC1 (stereo not drawn) [Compound 113]
Ki [4]: < 1000 nM | IC50 (endogenous CGRP receptor): < 1000 nM

CC(C)(C)CCN1C(=O)C(CC(=O)N2CCC(N3CCc4ccccc4NC3=O)CC2)SC1c1cccc(F)c1NCCN1CCOCC1 (stereo in doubt) [Compound 506, 3-(1-(2-((5S)-2-(2-(2-Morpholinoethylamino)-3-fluorophenyl)-3-(3,3-dimethylbutyl)-4-oxothiazolidin-5-yl)acetyl)piperidin-4-yl)-4,5-dihydro-1H-benzo[d][1,3]diazepin-2(3H)-one]
Ki [4]: < 1000 nM | IC50 (endogenous CGRP receptor): < 1000 nM

CC(C)(C)N1CCN(c2c(F)cccc2[C@H]2S[C@@H](CC(=O)N3CCC(N4CCc5ccccc5NC4=O)CC3)C(=O)N2CC2CCOCC2)CC1 [Compound 523]
Ki [4]: < 1000 nM | IC50 (endogenous CGRP receptor): < 1000 nM

CC(C)CN1C(=O)[C@H](CC(=O)N2CCC(N3CCc4ccccc4NC3=O)CC2)SC1c1cccc(F)c1N1CCN(C(C)(C)C)CC1 (stereo partly drawn) [Compound 493]
Ki [4]: < 1000 nM | IC50 (endogenous CGRP receptor): < 1000 nM

O=C(CC1SC(c2ccccc2)N(CC2CCCCC2)C1=O)N1CCC(N2Cc3ccccc3NC2=O)CC1 (stereo not drawn) [Compound 264]
Ki [4]: < 1000 nM | IC50 (endogenous CGRP receptor): < 1000 nM

CN(C)CCNc1c(F)cccc1C1S[C@@H](CC(=O)N2CCC(n3c(=O)[nH]c4ncccc43)CC2)C(=O)N1CCC(C)(C)C (stereo partly drawn) [Compound 518, 1-(1-(2-((5S)-2-(2-(2-(Dimethylamino)ethylamino)-3-fluorophenyl)-3-(3,3-dimethylbutyl)-4-oxothiazolidin-5-yl)acetyl)piperidin-4-yl)-1H-imidazo[4,5-b]pyridin-2(3H)-one]
Ki [4]: < 1000 nM | IC50 (endogenous CGRP receptor): < 1000 nM
